Assay results reported in US20220117938A1, “COMBINATON THERAPY WITH A DON PRODRUG AND AN IMMUNE CHECKPOINT INHIBITOR” (DRACEN PHARMACEUTICALS, INC., priority 2019, published 2022).

Tests used:
4T1 tumors = experiment: Anti-tumor efficacy of Compound 1 with and without anti-PD-1 in the 4T1 murine mammary cancer model (Example 2A); type: in vivo, Mus musculus; settings: for Tumor volume (mm^3), Mean ± SEM: n = 8; for ILS (%) / MST: endpoint tumor volume 2000 mm^3; for RTV at day 25 / T/C (%) / TGI (%) / Tumor Size (mm^3) at day 25, Mean ± SEM: day 25
Procedure: Female BALB/c mice were inoculated subcutaneously at the mammary fat pat with 4T1 cells for tumor development. Six days after tumor inoculation, 48 mice with tumor size ranging from 49-88 mm^3 (average tumor size 59 mm^3) were selected and assigned into 6 groups using stratified randomization with 8 mice per group based upon their tumor volumes. The treatments were started from the day of randomization (defined as D0), Group 1 was treated with Vehicle (Tween 80:Ethanol:Saline—5:5:90 v/v/v), s.c. q.d.×14, Group 2 was treated with anti-PD-1 10 mg/kg i.p. q4d×4, Group 3 was treated with Compound 1 3 mg/kg s.c. q.d.×5D followed by 1 mg/kg s.c. q.d.×9D, Group 4 was treated with Compound 13 mg/kg s.c. q.d.×5D followed by 1 mg/kg s.c. q.d.×9D+anti-PD-1 10 mg/kg i.p. q4d×4, Group 5 was treated with Compound 11 mg/kg s.c. q.d.×14D and Group 6 was treated with Compound 11 mg/kg s.c. q.d.×14D+anti-PD-1 10 mg/kg i.p. q4d×4. The tumor sizes were measured three times per week during the treatment. The entire study was terminated on D42 after start of the treatment. In this study anti mPD-1 (catalog number BE0146) was used.
Animal Species: Mus musculus; Strain: BALB/c; Age: 6-8 weeks; Sex: female; Body weight (at treatment start): 20-24 g.
The 4T1 tumor cells were maintained in vitro as a monolayer culture in RPMI-1640 medium supplemented with 10% heat inactivated fetal bovine serum and 100 μg/mL penicillin streptomycin at 37° C. in an atmosphere of 5% CO2 in air. The tumor cells were routinely subcultured twice weekly by trypsin-EDTA treatment. The cells growing to a confluency around 70%-80% were harvested and counted for tumor inoculation. The cultured 4T1 cells were harvested, re-suspended in base medium at a density of 2×10^6 cells/mL with viability >90%. Each mouse was inoculated subcutaneously at the […] with 1×10^5 in 0.05 ml base medium for tumor development.
The treatments were started on day 6 after tumor inoculation when the tumor size reached 49-88 mm^3 (average tumor size 59 mm^3). Each group consisted of 8 tumor bearing mice. The testing article was administrated at the dosing volume indicated to the mice according to the predetermined regimen as shown Table 2A-1. Testing article formulations were prepared according to standard procedures. Details regarding tumor measurements and endpoints, and statistical analysis are provided in EXAMPLE 3.
Tumor sizes were measured three times a week in two dimensions using a caliper, and the volume expressed in mm^3 using the formula: V=0.5 a×b^2 where a and b are the long and short diameters of the tumor, respectively. The tumor sizes were then used for the calculations of both tumor growth inhibition (TGI) and T/C values.
TGI is calculated for each group using the formula: […]
TVTreatment_DayN is the average tumor volume of a treatment group on a given day, TVTreatment_Day0 is the average tumor volume of the treatment group on the first day of treatment, TVVehicle_DayN is the average tumor volume of the vehicle control group on a given day, and TVVehicle_Day0 is the average tumor volume of the vehicle group on the first day of treatment.
The T/C value (in percent) is an indication of antitumor effectiveness, T/C (%)=RTVTreatment/RTVControl×100% (RTVTreatment: the mean RTV of the treatment group; RTVControl: the mean RTV of the vehicle treated group). RTV (relative tumor volume)=TVDayN/TVDay0. TVDayN and TVDay0 is the tumor volume on day N and Day 0 respectively. T/C (%)≤42% is considered as significant antitumor activity and <10% is considered as highly significant antitumor activity by the National Cancer Institute criteria.
Animal survival curve: When an individual animal reached to the termination endpoint (TV>2000 mm^3), the mouse was euthanized. The time from treatment initiation to the termination was deemed as its survival time. Survival curve was plotted by Kaplan-Meier method. Median survival time (MST) was calculated for each group. […]

A549 tumors = experiment: Anti-tumor efficacy of Compound 1 in the A549 xenograft model (Example 11); type: in vivo, mice
Procedure: Female BALB/c nude mice were inoculated subcutaneously in the right flank with A549 cells for tumor development. Eight days after tumor inoculation, mice with tumor sizes ranging from 100-200 mm^3 (average tumor size 156 mm^3) were selected and assigned into groups using stratified randomization with 8 mice per group based upon their tumor volumes. The treatments were started from the day of randomization (defined as D0), Group 1 was treated with Vehicle control, 10 ml/kg, IP, bid×21; Group 4 was treated with Compound 1; 1.4 mg/kg, SC, 5d ON, 2 d OFF×3 cycles; and Group 5 was treated with Compound 1, 3.3 mg/kg, IV, tiw, (Fri, Sun, Tues), ×3 cycles. The tumor sizes were measured two times per week during the treatment. The entire study was terminated on D21 after start of the treatment. All treatments were well-tolerated without any adverse effects or significant body weight loss.

[1] = Group 4, 1.4 mg/kg SC 5 d ON 2 d OFF x3 cycles
[2] = Group 4, 1.4 mg/kg SC 5 d ON 2 d OFF x3 cycles, day 21
[3] = Group 5, 3.3 mg/kg IV tiw x3 cycles
[4] = Group 5, 3.3 mg/kg IV tiw x3 cycles, day 21

## CC(=O)N[C@@H](Cc1c[nH]c2ccccc12)C(=O)N[C@@H](CCC(=O)C=[N+]=[N-])C(=O)OC(C)C [Compound 1, Isopropyl (S)-2-((S)-2-acetamido-3-(1H-indol-3-yl)propanamido)-6-diazo-5-oxohexanoate]
4T1 tumors; 1 mg/kg qdx14 s.c., Day 0
  Tumor volume (mm^3), Mean ± SEM: 58 ± 3 mm^3
4T1 tumors; 1 mg/kg qdx14 s.c., Day 2
  Tumor volume (mm^3), Mean ± SEM: 75 ± 4 mm^3
4T1 tumors; 1 mg/kg qdx14 s.c., Day 4
  Tumor volume (mm^3), Mean ± SEM: 85 ± 4 mm^3
4T1 tumors; 1 mg/kg qdx14 s.c., Day 7
  Tumor volume (mm^3), Mean ± SEM: 108 ± 4 mm^3
4T1 tumors; 1 mg/kg qdx14 s.c., Day 9
  Tumor volume (mm^3), Mean ± SEM: 130 ± 10 mm^3
4T1 tumors; 1 mg/kg qdx14 s.c., Day 11
  Tumor volume (mm^3), Mean ± SEM: 158 ± 12 mm^3
4T1 tumors; 1 mg/kg qdx14 s.c., Day 14
  Tumor volume (mm^3), Mean ± SEM: 172 ± 11 mm^3
4T1 tumors; 1 mg/kg qdx14 s.c., Day 16
  Tumor volume (mm^3), Mean ± SEM: 215 ± 17 mm^3
4T1 tumors; 1 mg/kg qdx14 s.c., Day 18
  Tumor volume (mm^3), Mean ± SEM: 300 ± 23 mm^3
4T1 tumors; 1 mg/kg qdx14 s.c., Day 21
  Tumor volume (mm^3), Mean ± SEM: 441 ± 31 mm^3
4T1 tumors; 1 mg/kg qdx14 s.c., Day 23
  Tumor volume (mm^3), Mean ± SEM: 622 ± 44 mm^3
4T1 tumors; 1 mg/kg qdx14 s.c., Day 25
  Tumor volume (mm^3), Mean ± SEM: 782 ± 53 mm^3
4T1 tumors; 3 mg/kg qdx5 then 1 mg/kg qdx9 s.c., Day 0
  Tumor volume (mm^3), Mean ± SEM: 59 ± 3 mm^3
4T1 tumors; 3 mg/kg qdx5 then 1 mg/kg qdx9 s.c., Day 2
  Tumor volume (mm^3), Mean ± SEM: 72 ± 4 mm^3
4T1 tumors; 3 mg/kg qdx5 then 1 mg/kg qdx9 s.c., Day 4
  Tumor volume (mm^3), Mean ± SEM: 76 ± 3 mm^3
4T1 tumors; 3 mg/kg qdx5 then 1 mg/kg qdx9 s.c., Day 7
  Tumor volume (mm^3), Mean ± SEM: 80 ± 3 mm^3
4T1 tumors; 3 mg/kg qdx5 then 1 mg/kg qdx9 s.c., Day 9
  Tumor volume (mm^3), Mean ± SEM: 88 ± 6 mm^3
4T1 tumors; 3 mg/kg qdx5 then 1 mg/kg qdx9 s.c., Day 11
  Tumor volume (mm^3), Mean ± SEM: 113 ± 9 mm^3
4T1 tumors; 3 mg/kg qdx5 then 1 mg/kg qdx9 s.c., Day 14
  Tumor volume (mm^3), Mean ± SEM: 171 ± 12 mm^3
4T1 tumors; 3 mg/kg qdx5 then 1 mg/kg qdx9 s.c., Day 16
  Tumor volume (mm^3), Mean ± SEM: 245 ± 17 mm^3
4T1 tumors; 3 mg/kg qdx5 then 1 mg/kg qdx9 s.c., Day 18
  Tumor volume (mm^3), Mean ± SEM: 356 ± 27 mm^3
4T1 tumors; 3 mg/kg qdx5 then 1 mg/kg qdx9 s.c., Day 21
  Tumor volume (mm^3), Mean ± SEM: 565 ± 37 mm^3
4T1 tumors; 3 mg/kg qdx5 then 1 mg/kg qdx9 s.c., Day 23
  Tumor volume (mm^3), Mean ± SEM: 762 ± 62 mm^3
4T1 tumors; 3 mg/kg qdx5 then 1 mg/kg qdx9 s.c., Day 25
  Tumor volume (mm^3), Mean ± SEM: 1024 ± 75 mm^3
4T1 tumors; Compound 1 1 mg/kg
  ILS (%): 13.8%
  MST: 33.0 days
4T1 tumors; Compound 1 3/1 mg/kg
  ILS (%): 19.0%
  MST: 34.5 days
4T1 tumors; Cpd. 1 1 mg/kg
  RTV at day 25: 13.65 ± 1.13
  T/C (%): 46.10%
  TGI (%): 53.9%
  Tumor Size (mm^3) at day 25, Mean ± SEM: 782 ± 53 mm^3
4T1 tumors; Cpd. 1 3/1 mg/kg
  RTV at day 25: 17.45 ± 0.83
  T/C (%): 58.95%
  TGI (%): 41.05%
  Tumor Size (mm^3) at day 25, Mean ± SEM: 1024 ± 75 mm^3
A549 tumors; [1]
  RTV at day 21: 8.61 ± 1.30
  Tumor Size at day 21: 1300 ± 161 mm^3
A549 tumors; Group 4, 1.4 mg/kg SC 5 d ON 2 d OFF x3 cycles, day 0
  Tumor volume: 155 ± 10 mm^3
A549 tumors; Group 4, 1.4 mg/kg SC 5 d ON 2 d OFF x3 cycles, day 4
  Tumor volume: 187 ± 12 mm^3
A549 tumors; Group 4, 1.4 mg/kg SC 5 d ON 2 d OFF x3 cycles, day 7
  Tumor volume: 273 ± 25 mm^3
A549 tumors; Group 4, 1.4 mg/kg SC 5 d ON 2 d OFF x3 cycles, day 11
  Tumor volume: 500 ± 59 mm^3
A549 tumors; Group 4, 1.4 mg/kg SC 5 d ON 2 d OFF x3 cycles, day 14
  Tumor volume: 658 ± 92 mm^3
A549 tumors; Group 4, 1.4 mg/kg SC 5 d ON 2 d OFF x3 cycles, day 18
  Tumor volume: 1050 ± 112 mm^3
A549 tumors; [2]
  T/C: 75.88%
  TGI: 28.57%
  Tumor volume: 1300 ± 161 mm^3
A549 tumors; [3]
  RTV at day 21: 9.55 ± 1.16
  Tumor Size at day 21: 1453 ± 171 mm^3
A549 tumors; Group 5, 3.3 mg/kg IV tiw x3 cycles, day 0
  Tumor volume: 156 ± 10 mm^3
A549 tumors; Group 5, 3.3 mg/kg IV tiw x3 cycles, day 4
  Tumor volume: 180 ± 12 mm^3
A549 tumors; Group 5, 3.3 mg/kg IV tiw x3 cycles, day 7
  Tumor volume: 268 ± 21 mm^3
A549 tumors; Group 5, 3.3 mg/kg IV tiw x3 cycles, day 11
  Tumor volume: 473 ± 39 mm^3
A549 tumors; Group 5, 3.3 mg/kg IV tiw x3 cycles, day 14
  Tumor volume: 647 ± 66 mm^3
A549 tumors; Group 5, 3.3 mg/kg IV tiw x3 cycles, day 18
  Tumor volume: 1107 ± 119 mm^3
A549 tumors; [4]
  T/C: 84.12%
  TGI: 19.04%
  Tumor volume: 1453 ± 171 mm^3
